Data reported in PMC11997890, “In Vivo and In Vitro Pharmacokinetic Studies of a Dual Topoisomerase I/II Inhibitor” (ACS Pharmacology & Translational Science, 2025).

Assays:
[1] = cited from earlier work; for CL / Oral bioavailability / Protein binding / V ss / t 1/2: literature values, ref numbers not given
[2] = set-up: method as in not given; details: human liver microsomes; ref not given; cited from earlier work
OvCar8 spheroids = assay: 3D spheroid viability (RealTime-Glo); format: cell-based, human; details: OvCar8 3D spheroids, 48 h
Protocol: Tumor complexity is represented more realistically in 3D spheroid models than in 2D monolayer models.
OvCar8 cells (8000/well) were seeded into an Ultra-Low-Attachment plate (Corning #4520) and grown for 96 h. Then, spheroids were treated with the drugs for 48 h. Cell cytotoxicity was assessed using the CellTox Green Cytotoxicity Assay (Promega #G8731) 48 h after treatment with NYONE ([…], 485Ex/520Em). Filters: BFEx/GreenEm (530/43 nm); BlueEx (475/28 nm)/GreenEm (530/43 nm). Viability and apoptosis were determined by RealTime-Glo (460Em) (Promega #G9711) and caspase-Glo 3/7 (565Em) (Promega #G8090) according to the manufacturer’s instructions using a microplate reader (Spark, Tecan). Relative caspase activity: caspase activity divided by the viability (normalized to control). For live-dead staining, cells were grown and treated as described above. Then, 80% of the medium was removed and replaced with propidium iodide (PI) (15 μM), calcein-AM (0.2 μM), and Hoechst 33342 (1.8 μM) in medium for 3 h and imaged by NYONE ([…]). Filters: BFEx/GreenEm(530/43 nm); Hoechst 33342: UVEx (377/50 nm)/BlueEm (452/45 nm); calcein-AM: BlueEx (475/28 nm)/GreenEm (530/43 nm); propidium iodide: LimeEx(562/40 nm)/RedEm(628/32 nm). All experiments were performed in biological triplicates. PBS was used as the negative control, and cisplatin and P8-D6 as the positive control.

CYP3A4 = tested on: CYP3A4; set-up: method as in not given; details: metabolized by CYP3A4; ref not given; cited from earlier work

Row | Compound | CL [1] | Oral bioavailability [1] | Protein binding [1] | V ss [1] | t 1/2 [1] [h] | other results
1 | CC[C@@]1(O)C(=O)OCc2c1cc1n(c2=O)Cc2c-1nc1cc3c(cc1c2CN1CCN(C)CC1)OCCO3 [lurtotecan] | 60 L/(h m^2) | 11.3 ± 5.2% | 90% | 190 L/m^2 | 3.7 | –
2 | CC[C@@]1(O)C(=O)OCc2c1cc1n(c2=O)Cc2cc3c(CN(C)C)c(O)ccc3nc2-1 [topotecan] | 14–34 L/(h m^2) | 32–44% | 7–35% | – | 3.1 to 4 | mean ratio of N-demethylated metabolite to topotecan [2]: approximately 3%
3 | N.N.[Cl][Pt][Cl] [cisplatin, reference compound] | – | – | – | – | – | IC50 (OvCar8 spheroids): 13.5 µM
4 | O=C(c1cc(Cc2n[nH]c(=O)c3ccccc23)ccc1F)N1CCN(C(=O)C2CC2)CC1 [Olaparib, olaparib] | – | – | – | – | – | rate of three major metabolites (CYP3A4): 8–12%
5 | CCc1c2c(nc3ccc(OC(=O)N4CCC(N5CCCCC5)CC4)cc13)-c1cc3c(c(=O)n1C2)COC(=O)[C@]3(O)CC [irinotecan] | – | – | 65% | – | – | –
6 | COc1cc([C@@H]2c3cc4c(cc3[C@@H](O[C@@H]3O[C@@H]5CO[C@@H](C)O[C@H]5[C@H](O)[C@H]3O)[C@H]3COC(=O)[C@H]23)OCO4)cc(OC)c1O [etoposide] | 1–2 L/(h m^2) | 50 (40–75) % | 94–95% | 7.1 (5–17) L/m^2 | 6.4 | –
7 | COc1cccc2c1C(=O)c1c(O)c3c(c(O)c1C2=O)C[C@@](O)(C(=O)CO)C[C@@H]3O[C@H]1C[C@H](N)[C@H](O)[C@H](C)O1 [doxorubicin] | 12–34 L/(h m^2) | 5% | 50–85% | 809–1214 L/m^2 | 17.3 to 26 | drug eliminated ([1]; after 7 days, ref not given): 25–45%
8 | COc1cc2ncnc(Nc3ccc(F)c(Cl)c3)c2cc1OCCCN1CCOCC1 [gefitinib] | – | – | > 97% | – | – | –
